We go through 24 compounds from patent US20230113037A1 (Bayer Aktiengesellschaft, priority 2019, published 2023).

The target of assay [1] is T1, AHR (Homo sapiens, UniProt P35869).
T1 construct: U87 MG glioblastoma cells (ATCC #HTB-14) endogenously expressing AHR; endogenous in cells; host or cells: U87 MG glioblastoma cells (ATCC #HTB-14)
T1 sequence (P35869 11-848): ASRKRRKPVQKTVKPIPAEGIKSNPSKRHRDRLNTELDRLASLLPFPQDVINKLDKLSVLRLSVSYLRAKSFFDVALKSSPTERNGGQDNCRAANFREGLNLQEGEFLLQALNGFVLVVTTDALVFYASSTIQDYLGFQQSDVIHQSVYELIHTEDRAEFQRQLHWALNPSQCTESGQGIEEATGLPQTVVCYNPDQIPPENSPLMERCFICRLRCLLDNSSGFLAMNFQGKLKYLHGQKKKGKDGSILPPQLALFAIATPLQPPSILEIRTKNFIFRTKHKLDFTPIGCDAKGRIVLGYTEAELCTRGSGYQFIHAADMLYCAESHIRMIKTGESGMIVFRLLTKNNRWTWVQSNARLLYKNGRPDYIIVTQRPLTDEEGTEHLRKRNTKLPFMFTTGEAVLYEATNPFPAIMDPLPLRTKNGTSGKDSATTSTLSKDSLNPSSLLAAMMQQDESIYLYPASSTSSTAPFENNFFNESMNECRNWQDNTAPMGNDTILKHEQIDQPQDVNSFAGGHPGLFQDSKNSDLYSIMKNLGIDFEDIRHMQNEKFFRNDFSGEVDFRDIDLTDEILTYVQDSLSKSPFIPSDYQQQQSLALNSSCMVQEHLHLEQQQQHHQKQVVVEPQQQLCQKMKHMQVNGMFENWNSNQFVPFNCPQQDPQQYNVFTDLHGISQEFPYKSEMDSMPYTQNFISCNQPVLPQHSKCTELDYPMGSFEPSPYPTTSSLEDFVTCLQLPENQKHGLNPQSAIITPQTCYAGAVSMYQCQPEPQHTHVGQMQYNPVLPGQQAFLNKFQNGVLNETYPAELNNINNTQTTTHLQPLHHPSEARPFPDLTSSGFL
In words: In vitro assay 1: antagonism in human cell line (AHR transactivation, firefly luciferase reporter, kynurenic acid prestimulated). The note with it: AHR Antagonism Human IC50 [M]. The assay is classed as cell-based. The essentials:
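U87 MG glioblastoma cells with endogenous AHR, stably carrying a DRE-driven firefly luciferase reporter and constitutive Renilla reporter, prestimulated with kynurenic acid before compound addition. Firefly and Renilla read by dual luciferase; Renilla flags toxicity; normalized to controls (150 μM kynurenic acid + 5 μM staurosporine as full inhibition); repeat values averaged or median.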
(Reporter assays use an easily measured gene product as a stand-in for the process of interest.)

Assay [2] has as its target T2, AHR (Mus musculus, UniProt P30561).
T2 sequence (P30561 1-848 P471L/N533S/M589L): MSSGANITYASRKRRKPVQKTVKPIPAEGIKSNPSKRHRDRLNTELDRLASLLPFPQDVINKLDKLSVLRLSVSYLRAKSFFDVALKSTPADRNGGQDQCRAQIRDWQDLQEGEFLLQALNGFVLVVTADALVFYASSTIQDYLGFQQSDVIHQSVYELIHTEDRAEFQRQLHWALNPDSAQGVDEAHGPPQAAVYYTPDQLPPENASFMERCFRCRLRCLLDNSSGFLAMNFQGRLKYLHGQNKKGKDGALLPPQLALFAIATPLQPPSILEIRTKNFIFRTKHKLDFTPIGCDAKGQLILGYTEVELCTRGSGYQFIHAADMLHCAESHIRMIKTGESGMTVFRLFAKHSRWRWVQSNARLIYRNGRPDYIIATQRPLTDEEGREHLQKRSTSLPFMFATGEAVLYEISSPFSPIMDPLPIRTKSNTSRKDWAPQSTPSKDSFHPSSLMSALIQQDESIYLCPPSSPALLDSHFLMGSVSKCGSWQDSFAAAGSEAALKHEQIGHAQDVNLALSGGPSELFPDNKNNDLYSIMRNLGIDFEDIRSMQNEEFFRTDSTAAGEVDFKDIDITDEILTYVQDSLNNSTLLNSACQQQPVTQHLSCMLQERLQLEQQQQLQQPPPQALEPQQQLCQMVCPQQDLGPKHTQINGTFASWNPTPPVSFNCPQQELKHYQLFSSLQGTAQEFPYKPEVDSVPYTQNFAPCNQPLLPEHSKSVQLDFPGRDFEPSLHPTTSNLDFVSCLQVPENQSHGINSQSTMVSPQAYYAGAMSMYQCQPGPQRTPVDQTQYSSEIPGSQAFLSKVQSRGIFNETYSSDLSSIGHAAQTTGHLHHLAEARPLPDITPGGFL
Description: In vitro assay 3: antagonism in mouse cell line (AHR transactivation, firefly luciferase reporter, kynurenic acid prestimulated). In kind it is cell-based. An outline of the steps:
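Mouse cells stably carrying a DRE-driven AHR-inducible firefly luciferase reporter were prestimulated with the endogenous agonist kynurenic acid before compound addition. Luciferase read by SteadyGlo; cells without kynurenic acid served as full-inhibition control, with normalization to positive and negative controls. Repeat tests reported as mean or median.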

The mark [3] stands for this setting: mouse Hepa 1c1c7 cells, 200 μM kynurenic acid, 20 hours, read-out: AHR Antagonism Mouse IC50.

Usually IC50 stands for the midpoint of a concentration-inhibition curve.

Where two headings read alike, the source gives them in different places. Where only a bound is given, the exact number is not on record here.

As for `O=C1NCCC[C@H]1Nc1nc2ccccc2c2nc(-c3ccsc3)nn12` [Example 343, (3R)-3-{[2-(thiophen-3-yl)[1,2,4]triazolo[1,5-c]quinazolin-5-yl]amino}piperidin-2-one], the values for the IC50 against AHR [1] and on AHR [2] (setting [3]) were 6.67e-08 M and 178 nM, respectively.

Regarding `CC[C@@H](Nc1nc2ccccc2c2nc(-c3ccsc3)nn12)C(N)=O` [Example 344], the IC50 against AHR [1] was determined as 3.57e-09 M; at AHR [2] (setting [3]), 0.628 nM.

Take `CN1CC[C@@H](Nc2nc3ccccc3c3nc(-c4ccsc4)nn23)C1=O` [Example 345, (3R)-1-methyl-3-{[2-(thiophen-3-yl)[1,2,4]triazolo[1,5-c]quinazolin-5-yl]amino}pyrrolidin-2-one]: the IC50 came out at 1.24e-07 M against AHR [1] and 27 nM at AHR [2] (setting [3]).

Take `Cc1sccc1-c1nc2c3ccccc3nc(N[C@H]3CCCCNC3=O)n2n1` [Example 347]: the IC50 against AHR [1] worked out at 1.17e-07 M; on AHR [2] (setting [3]) it was 4.28 nM.

Consider `Cc1sccc1-c1nc2c3ccccc3nc(N[C@@H]3CCCNC3=O)n2n1` [Example 348, (3R)-3-{[2-(2-methylthiophen-3-yl)[1,2,4]triazolo[1,5-c]quinazolin-5-yl]amino}piperidin-2-one], for which the IC50 at AHR [1] worked out at 7.76e-08 M; on AHR [2] (setting [3]), 37.4 nM.

In the case of `Cc1sccc1-c1nc2c3ccccc3nc(N[C@@H]3CCNC3=O)n2n1` [Example 349, (3R)-3-{[2-(2-methylthiophen-3-yl)[1,2,4]triazolo[1,5-c]quinazolin-5-yl]amino}pyrrolidin-2-one], the figures for the IC50 on AHR [1] and at AHR [2] (setting [3]) were 5.16e-08 M and 11.5 nM, respectively.

As for `Cc1sccc1-c1nc2c3ccccc3nc(N[C@@H]3CCN(C)C3=O)n2n1` [Example 350], the IC50 against AHR [1] came out at 4.13e-08 M; at AHR [2] (setting [3]), 3.59 nM.

Turning to `CC[C@@H](Nc1nc2ccccc2c2nc(-c3ccsc3C)nn12)C(N)=O` [Example 351], the IC50 against AHR [1] stood at 1.37e-09 M; at AHR [2] (setting [3]), 0.125 nM.

In the case of `Cc1cc(-c2nc3c4ccccc4nc(N[C@H]4CCCCNC4=O)n3n2)cs1` [Example 353], the IC50 against AHR [1] was 2.36e-07 M; at AHR [2] (setting [3]) it was 27.4 nM.

As to `Cc1cc(-c2nc3c4ccccc4nc(N[C@@H]4CCCNC4=O)n3n2)cs1` [Example 354, (3R)-3-{[2-(5-methylthiophen-3-yl)[1,2,4]triazolo[1,5-c]quinazolin-5-yl]amino}piperidin-2-one], the values for the IC50 on AHR [1] and at AHR [2] (setting [3]) were 4.05e-08 M and 78.2 nM, respectively.

`Cc1cc(-c2nc3c4ccccc4nc(N[C@@H]4CCN(C)C4=O)n3n2)cs1` [Example 355]: the IC50 against AHR [1] came to 3.79e-08 M; at AHR [2] (setting [3]), 36.6 nM.

On to `Cc1cc(-c2nc3c4ccccc4nc(N[C@@H]4CCNC4=O)n3n2)cs1` [Example 356, (3R)-3-{[2-(5-methylthiophen-3-yl)[1,2,4]triazolo[1,5-c]quinazolin-5-yl]amino}pyrrolidin-2-one], for which the IC50 on AHR [1] was 2.71e-08 M; on AHR [2] (setting [3]), 30.4 nM.

In the case of `CC[C@@H](Nc1nc2ccccc2c2nc(-c3csc(C)c3)nn12)C(N)=O` [Example 358], the IC50 on AHR [1] worked out at 3.15e-09 M; on AHR [2] (setting [3]), 1.78 nM.

Regarding `O=C1NCCCC[C@H]1Nc1nc2ccccc2c2nc(-c3cc(C(F)(F)F)cc(C(F)(F)F)c3)nn12` [Example 359, (3R)-3-({2-[3,5-Bis(trifluoromethyl)phenyl][1,2,4]triazolo[1,5-c]quinazolin-5-yl}amino)azepan-2-one], the results for the IC50 at AHR [1] and at AHR [2] (setting [3]) were > 2e-05 M and 93.4 nM, respectively.

For `O=C1NCC[C@H]1Nc1nc2ccccc2c2nc(-c3cc(C(F)(F)F)cc(C(F)(F)F)c3)nn12` [Example 360, (3R)-3-({2-[3,5-bis(trifluoromethyl)phenyl][1,2,4]triazolo[1,5-c]quinazolin-5-yl}amino)pyrrolidin-2-one], the results for the IC50 at AHR [1] and on AHR [2] (setting [3]) were > 2e-05 M and 5440 nM, respectively.

On to `CC[C@@H](Nc1nc2ccccc2c2nc(-c3cc(C(F)(F)F)cc(C(F)(F)F)c3)nn12)C(N)=O` [Example 361, (2R)-2-({2-[3,5-bis(trifluoromethyl)phenyl][1,2,4]triazolo[1,5-c]quinazolin-5-yl}amino)butanamide], for which the IC50 at AHR [1] is > 2e-05 M; on AHR [2] (setting [3]) it was 66.8 nM.

As for `O=C1NCCCC[C@H]1Nc1nc2ccccc2c2nc(-c3cncc(C(F)(F)F)c3)nn12` [Example 362, (3R)-3-({2-[5-(trifluoromethyl)pyridin-3-yl][1,2,4]triazolo[1,5-c]quinazolin-5-yl}amino)azepan-2-one], the IC50 came out at 1.91e-08 M against AHR [1] and 3.54 nM on AHR [2] (setting [3]).

Take `O=C1NCCCC[C@H]1Nc1nc2ccccc2c2nc(-c3cc(C(F)(F)F)ccn3)nn12` [Example 363, (3R)-3-({2-[4-(trifluoromethyl)pyridin-2-yl][1,2,4]triazolo[1,5-c]quinazolin-5-yl}amino)azepan-2-one]: the IC50 against AHR [1] turned out to be 3.5e-08 M; at AHR [2] (read-out: AHR Antagonism Mouse IC50, mouse Hepa 1c1c7 cells, 200 μM kynurenic acid, 20 hours) it was 10.7 nM.

Regarding `O=C1NCC[C@H]1Nc1nc2ccccc2c2nc(-c3cc(C(F)(F)F)ccn3)nn12` [Example 366, (3R)-3-({2-[4-(trifluoromethyl)pyridin-2-yl][1,2,4]triazolo[1,5-c]quinazolin-5-yl}amino)pyrrolidin-2-one], the IC50 against AHR [1] was > 2e-05 M; at AHR [2] (setting [3]), 593 nM.

Consider `CC[C@@H](Nc1nc2ccccc2c2nc(-c3cc(C(F)(F)F)ccn3)nn12)C(N)=O` [Example 367, (2R)-2-({2-[4-(trifluoromethyl)pyridin-2-yl][1,2,4]triazolo[1,5-c]quinazolin-5-yl}amino)butanamide], for which the IC50 against AHR [1] amounted to 1.91e-07 M; at AHR [2] (setting [3]), 10.5 nM.

On to `CCC[C@@H](Nc1nc2ccccc2c2nc(-c3cc(C(F)(F)F)ccn3)nn12)C(=O)NC` [Example 368, N-methyl-N^2-{2-[4-(trifluoromethyl)pyridin-2-yl][1,2,4]triazolo[1,5-c]quinazolin-5-yl}-D-norvalinamide], for which the IC50 on AHR [1] is 5e-08 M; on AHR [2] (setting [3]) it was 24.8 nM.

With `O=C1NCCCC[C@H]1Nc1nc2ccccc2c2nc(-c3ccncc3F)nn12` [Example 369, (3R)-3-{[2-(3-fluoropyridin-4-yl)[1,2,4]triazolo[1,5-c]quinazolin-5-yl]amino}azepan-2-one], the values for the IC50 at AHR [1] and on AHR [2] (setting [3]) were 1.64e-08 M and 9.97 nM, respectively.

For `O=C1NCCCC[C@H]1Nc1nc2ccccc2c2nc(-c3cccc(C(F)(F)F)n3)nn12` [Example 370, (3R)-3-({2-[6-(trifluoromethyl)pyridin-2-yl][1,2,4]triazolo[1,5-c]quinazolin-5-yl}amino)azepan-2-one], the IC50 against AHR [1] came to 5.45e-08 M; at AHR [2] (setting [3]), 6.38 nM.

For `CC[C@@H](Nc1nc2ccccc2c2nc(-c3cccc(C(F)(F)F)n3)nn12)C(N)=O` [Example 371, (2R)-2-({2-[6-(trifluoromethyl)pyridin-2-yl][1,2,4]triazolo[1,5-c]quinazolin-5-yl}amino)butanamide], the IC50 against AHR [1] stood at 7.24e-08 M; at AHR [2] (setting [3]), 14.6 nM.
